Laboratory results published in patent EP0562731A1, “Substituted pyridinesulfonamide compounds or their salts, process for preparing the same, and herbicides containing the same” (ISHIHARA SANGYO KAISHA, Ltd., priority 1992, dated 1993).

Legend:
Type in all cases: in vivo
[1] = tested on: velvet leaf (Abutilon theophrasti); experiment: Test Example 2: foliar application pot test, visual herbicidal effect rating, single and combined herbicides; conditions: velvet leaf 1.2-leaf stage, 25 days after foliar application; note: ranges in brackets are in %
Description: 1/10000-are pot was filled with upland farming soil and sown with velvet leaf (Abutilon theophrasti). When the plant reached the 1.2-leaf stage, a predetermined amount of the herbicide of the present invention diluted with 5 ℓ of water per are and admixed with 0.1 vol%, based on the aqueous solution, of an agricultural spreader ("Kusa Rino", produced by Nihon Nohyaku Co., Ltd.) was foliarly applied to the plant with a small spray gun. The herbicidal effect was visually observed 25 days after the foliar application and evaluated according to the rating system shown below.

wheat (Triticum) = experiment: Test Example 1: foliar application pot test, visual growth control rating; parameters: key: 1: the same as in an untreated plot; 10: perfect growth control; conditions: 1.25 g/a active ingredient, wettable powder, observed 20 to 31 days after application
Description: (§1) 1/1,500 are [are (a) = 100 m²] pots were filled with upland farming soil, which in the pots was then sown with a variety of plants. The plants grown will be enumerated below.
(§2) When each plant reached a given growth stage (a 1.2- to 3.0-leaf stage for rice, primary leaf to a 0.7-leaf stage for soybean, 2.1- to 3.6-leaf stage for corn, cotyledon to 0.7-leaf stage for cotton, 2.0- to 3.0-leaf stage for wheat, 0.3- to 3.4-leaf stage for cocklebur, 0.3- to 1.6-leaf stage for morning glory, 0.1- to 1.3-leaf stage for prickly sida, 0.1- to 1.3-leaf stage for slender amaranth, 1.5- to 3.2-leaf stage for barnyard glass, and 1.2- to 3.0-leaf stage for large crabgrass), a predetermined amount of the herbicide of the present invention in the form of a wettable powder, weighed out, diluted with 5 ℓ/a of water and admixed with 0.2 or 0.1 vol%, based on the resulting composition, of an agricultural spreader, was foliarly applied to the plant with a small spray gun. The progress of growth of the plant was visually observed 20 to 31 days after the foliar application to evaluate the degree of growth control according to 10 ratings (1: the same as in an untreated plot - 10: perfect growth control).

[2] = tested on: large crabgrass (Digitaria adscendens); experiment: as above; parameters: key: 1: the same as in an untreated plot; 10: perfect growth control; conditions: 1.25 g/a active ingredient, wettable powder, observed 20 to 31 days after application
Description: as §1, §2

soybean (Glycine max) = experiment: as above; parameters: key: 1: the same as in an untreated plot; 10: perfect growth control; conditions: 1.25 g/a active ingredient, wettable powder, observed 20 to 31 days after application
Description: as §1, §2

[3] = tested on: barnyard grass (Echinochloa crus-galli); experiment: as above; parameters: key: 1: the same as in an untreated plot; 10: perfect growth control; conditions: 1.25 g/a active ingredient, wettable powder, observed 20 to 31 days after application
Description: as §1, §2

corn (Zea mays) = experiment: as above; parameters: key: 1: the same as in an untreated plot; 10: perfect growth control; conditions: 1.25 g/a active ingredient, wettable powder, observed 20 to 31 days after application
Description: as §1, §2

[4] = tested on: slender amaranth (Amaranthus viridis); experiment: as above; parameters: key: 1: the same as in an untreated plot; 10: perfect growth control; conditions: 1.25 g/a active ingredient, wettable powder, observed 20 to 31 days after application
Description: as §1, §2

[5] = tested on: morning glory (Ipomoea purpurea); experiment: as above; parameters: key: 1: the same as in an untreated plot; 10: perfect growth control; conditions: 1.25 g/a active ingredient, wettable powder, observed 20 to 31 days after application
Description: as §1, §2

rice (Oryza sativa) = experiment: as above; parameters: key: 1: the same as in an untreated plot; 10: perfect growth control; conditions: 1.25 g/a active ingredient, wettable powder, observed 20 to 31 days after application
Description: as §1, §2

[6] = tested on: prickly sida (Sida spinosa); experiment: as above; parameters: key: 1: the same as in an untreated plot; 10: perfect growth control; conditions: 1.25 g/a active ingredient, wettable powder, observed 20 to 31 days after application
Description: as §1, §2

[7] = tested on: cocklebur (Xanthium strumarium); experiment: as above; parameters: key: 1: the same as in an untreated plot; 10: perfect growth control; conditions: 1.25 g/a active ingredient, wettable powder, observed 20 to 31 days after application
Description: as §1, §2

SMILES	Rating ([1]; 0.25 g/a)	Rating ([1]; 0.5 g/a)	Rating ([1]; 1.00 g/a)	Rating ([1]; 0.02 g/a)	Rating ([1]; 0.04 g/a)	Rating ([1]; 0.08 g/a)	degree of growth control, TR (wheat (Triticum))	degree of growth control, DI [2]	degree of growth control, GL (soybean (Glycine max))	degree of growth control, EC [3]	degree of growth control, ZE (corn (Zea mays))	degree of growth control, AM [4]	degree of growth control, IP [5]	degree of growth control, OR (rice (Oryza sativa))	degree of growth control, SI [6]	degree of growth control, XA [7]
CS(=O)(=O)NC(=O)c1cc(Oc2ccc(C(F)(F)F)cc2Cl)ccc1[N+](=O)[O-] [Fomesafen, 5-[2-chloro-4-(trifluoromethyl)phenoxy]-N-(methylsulfonyl)-2-nitrobenzamide]	3 (30-39)	7 (70-79)	7 (70-79)	–	–	–	–	–	–	–	–	–	–	–	–	–
CCOC(=O)c1ccccc1S(=O)(=O)NC(=O)Nc1nc(Cl)cc(OC)n1 [Chlorimuron-ethyl, ethyl 2-[[[[(4-chloro-6-methoxy-2-pyrimidinyl)amino]carbonyl]amino]sulfonyl]benzoate]	–	–	–	6 (60-69)	8 (80-89)	9 (90-99)	–	–	–	–	–	–	–	–	–	–
CCN(c1cccc(S(=O)(=O)NC(=O)Nc2nc(OC)nc(OC)n2)n1)S(=O)(=O)CC(F)(F)F [compound 92]	–	–	–	–	–	–	9	3	7	6	7	5	10	5	6	10
CCN(c1cccc(S(=O)(=O)NC(=O)Nc2nc(C)nc(OC)n2)n1)S(=O)(=O)CCl [compound 60]	–	–	–	–	–	–	2	4	4	6	5	9	7	6	5	9
CCCCN(c1cccc(S(=O)(=O)NC(=O)Nc2nc(C)nc(OC)n2)n1)S(=O)(=O)CCCC [compound 43]	–	–	–	–	–	–	3	6	4	3	3	5	3	2	3	6
CCCCS(=O)(=O)N(CCC)c1cccc(S(=O)(=O)NC(=O)Nc2nc(C)nc(OC)n2)n1 [compound 42]	–	–	–	–	–	–	4	5	4	3	3	10	4	6	3	6
CCS(=O)(=O)N(c1cccc(S(=O)(=O)NC(=O)Nc2nc(C)nc(OC)n2)n1)C(C)C [compound 6]	–	–	–	–	–	–	3	4	3	6	10	9	8	6	6	7
CCCCN(c1cccc(S(=O)(=O)NC(=O)Nc2nc(C)nc(OC)n2)n1)S(=O)(=O)C(C)C [Compound No. 4]	–	–	–	–	–	–	2	3	4	7	10	9	6	8	6	9
CCCCS(=O)(=O)N(CC(C)C)c1cccc(S(=O)(=O)NC(=O)Nc2nc(C)nc(OC)n2)n1 [compound 82]	–	–	–	–	–	–	4	3	3	4	8	7	6	4	1	9
CCCN(c1cccc(S(=O)(=O)NC(=O)Nc2nc(C)nc(OC)n2)n1)S(=O)(=O)CC [Compound No. 3]	–	–	–	–	–	–	4	6	3	9	8	10	5	6	6	8
CCS(=O)(=O)N(c1cccc(S(=O)(=O)NC(=O)Nc2nc(OC)nc(OC)n2)n1)C(C)C [compound 7]	–	–	–	–	–	–	2	2	3	2	10	9	6	3	3	7
CCC(C)N(c1cccc(S(=O)(=O)NC(=O)Nc2nc(C)nc(OC)n2)n1)S(=O)(=O)C(C)CC (racemic) [compound 81]	–	–	–	–	–	–	2	3	6	6	2	3	6	5	2	9
CCCCN(c1cccc(S(=O)(=O)NC(=O)Nc2nc(C)nc(OC)n2)n1)S(C)(=O)=O [compound 32]	–	–	–	–	–	–	2	6	3	3	3	6	5	3	4	6
COc1nc(C)nc(NC(=O)NS(=O)(=O)c2cccc(N(CC(C)C)S(C)(=O)=O)n2)n1 [compound 33]	–	–	–	–	–	–	3	6	3	3	2	6	4	6	3	3
CCN(c1cccc(S(=O)(=O)NC(=O)Nc2nc(C)nc(OC)n2)n1)S(=O)(=O)CC [compound 37]	–	–	–	–	–	–	1	2	2	4	3	9	3	2	3	4
